Measurements from US8680242B2, “Plasminogen receptor, polypeptides and antibodies thereof” (priority 2008, dated 2014).
Ends that are not written are not given here.

Legend:
Plasminogen = target: T1, Plasminogen (Homo sapiens, UniProt P00747); assay: Plasminogen binding to BSA-coupled C-terminal Plg-RKT peptide coated on microtiter wells, detected with anti-plasminogen MAb
T1 construct: host or cells: peptide is synthetic
Description: Our isolation method was consistent with exposure of the carboxyl-terminus of Plg-RKT (with its carboxyl-terminal lysine) on the cell surface and also with the ability of the carboxyl-terminal domain to bind to plasminogen. For verification, we tested whether a synthetic peptide, corresponding to the C-terminus of Plg-RKT could bind plasminogen. The peptide, CEQSKLFSDK (SEQ ID NO: 33) corresponding to the ten C-terminal amino acids of Plg-RKT with cysteine substituted for R138) was coupled to bovine serum albumin (BSA) and then coated onto wells of microtiter plates at 10 μg/ml. The wells were blocked with 5% BSA. Plasminogen (0.2 μM) was incubated with the wells, followed by our anti-plasminogen MAb^36 and detection with HRP-conjugated goat anti-mouse IgG (Biosource, Camarillo, Calif.). Plasminogen bound to the peptide in a concentration dependent manner with 50% maximal binding achieved at a plasminogen concentration of ˜10 nM. The binding was specific because it was blocked in the presence of epsilon-aminocaproic acid (EACA), consistent with the ability of EACA to inhibit plasminogen binding to differentiated Hoxa9-ER4 cells. […] In controls for the detection method, O.D.490 values obtained using an isotype control antibody or in the absence of added plasminogen were <5% of the values for plasminogen binding to the BSA-coupled peptide detected with anti-plasminogen MAb.

[1] = target: T2, plasminogen binding to the Plg-RKT polypeptide, CEQSKLFSDK (SEQ ID NO: 33) (Mus musculus, UniProt Q9D3P8, R138C); assay: Inhibition of biotinylated plasminogen binding to immobilized Plg-RKT C-terminal peptide (streptavidin-HRP); settings: plasminogen domains from elastase digestion
T2 construct: host or cells: peptide is synthetic
Protocol: (§1) Mab36Al2 or control rat IgG2A was incubated with the Plg-RKT polypeptide, CEQSKLFSDK (SEQ ID NO: 33), coupled to BSA and immobilized on microtiter wells. In these assays, 200 nM biotinylated plasminogen was then added and plasminogen binding was detected with streptavidin-HRP.
(§2) We tested the ability of a peptide, CEQSRFFIDK (SEQ ID NO: 34), corresponding to the C terminus of human Plg-RKT (residues 139-147), to inhibit the binding of biotinylated-plasminogen to the C-terminal peptide CEQSKLFSDK (SEQ ID NO: 33), of mouse Plg-RKT when CEQSKLFSDK (SEQ ID NO: 33), was coupled to BSA and immobilized to microtiter plates as described above. […] Thus, the interaction of plasminogen with the C-terminal peptide of Plg-RKT requires the presence of a C-terminal lysine residue.
(§3) In other assays to define the ligand recognition specificity of Plg-RKT for plasminogen. the Plg-RKT polypeptide, CEQSKLFSDK (SEQ ID NO: 33), was coupled to microtiter wells. Plasminogen was directly biotinylated and then incubated with the immobilized peptide and detected with streptavidin-HRP, as above. […] (K1-3 is comprised of the plasminogen amino acid sequences, Tyr^79-Val^337 or Tyr^79-Val^353. K4 is contained within the plasminogen amino acid sequences, Val^354-Ala^439. K5-PD is contained within the plasminogen amino acid sequences, Val^442-Asn^790 and contains kringle 5 as well as the latent protease domain.)

[2] = system: plasminogen binding to the Plg-RKT polypeptide, CEQSKLFSDK (SEQ ID NO: 33); assay: as above; set-up: species or system mouse
Protocol: as §1, §2, §3

biotinylated plasminogen = target: T3, biotinylated plasminogen (Homo sapiens, UniProt P00747); assay: Direct binding of biotinylated plasminogen to immobilized peptide (streptavidin-HRP)
T3 construct: host or cells: peptide is synthetic
Protocol: as §1, §3

T1 sequence (P00747 20-810 limits assumed): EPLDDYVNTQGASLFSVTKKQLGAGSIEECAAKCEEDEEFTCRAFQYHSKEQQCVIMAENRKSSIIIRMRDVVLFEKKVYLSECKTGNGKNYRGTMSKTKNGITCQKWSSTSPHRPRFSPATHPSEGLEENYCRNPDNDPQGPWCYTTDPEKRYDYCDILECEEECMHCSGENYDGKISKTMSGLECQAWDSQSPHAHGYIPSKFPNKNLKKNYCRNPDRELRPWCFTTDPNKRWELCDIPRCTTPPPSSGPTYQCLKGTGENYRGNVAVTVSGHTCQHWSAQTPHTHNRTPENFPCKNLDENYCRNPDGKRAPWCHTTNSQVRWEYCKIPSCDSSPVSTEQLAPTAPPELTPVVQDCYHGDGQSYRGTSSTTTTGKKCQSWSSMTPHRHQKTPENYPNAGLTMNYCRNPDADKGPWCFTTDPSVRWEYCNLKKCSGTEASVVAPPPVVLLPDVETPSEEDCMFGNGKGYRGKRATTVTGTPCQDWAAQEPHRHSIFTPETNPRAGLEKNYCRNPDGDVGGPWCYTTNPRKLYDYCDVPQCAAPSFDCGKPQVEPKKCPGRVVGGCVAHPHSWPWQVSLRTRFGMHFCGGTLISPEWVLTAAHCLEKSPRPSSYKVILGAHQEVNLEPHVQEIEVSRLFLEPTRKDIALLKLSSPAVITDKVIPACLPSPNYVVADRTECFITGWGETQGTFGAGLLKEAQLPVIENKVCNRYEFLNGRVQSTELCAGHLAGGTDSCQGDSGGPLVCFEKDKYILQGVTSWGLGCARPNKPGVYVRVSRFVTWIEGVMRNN
T3 sequence (P00747 20-810 limits assumed): as above

Molecule	order of effectiveness in inhibiting plasminogen interaction with immobilized CEQSKLFSDK [1]	inhibition of plasminogen binding to immobilized CEQSKLFSDK (in words) [2]	other results
NCCCCCC(=O)O [epsilon-aminocaproic acid]	–	–	effect on plasminogen binding to the peptide CEQSKLFSDK (Plasminogen; in the presence of EACA): blocked
Plg: plasminogen, precursor of plasmin with five kringle domains and a serine protease domain	Plg>K1-3>K5>K4	–	–
CEQSRFFIDA [mutant peptide with the C-terminal K replaced with A, reference compound]	–	not affected	–
CEQSRFFIDK [peptide with R142 replaced with K, human C-terminal peptide with R142 replaced with K]	–	more effective competitor	–
KDSFLKSQEC (listed as Mus musculus) [reverse peptide control, reference compound]	–	–	nonspecific plasminogen binding, relative to binding to CEQSKLFSDK (Plasminogen; control peptide on wells): < 10%; biotinylated-Plg binding to the immobilized peptide (biotinylated plasminogen): no biotinylated-Plg binding
CEQSRFFIDK [CEQSRFFIDK]	–	inhibited in a dose-dependent manner	–
CEQSKLFSDK [CEQSKLFSDK]	–	–	biotinylated-Plg binding to the immobilized peptide (biotinylated plasminogen): concentration-dependent manner
K5: plasminogen fragment within Val442-Asn790, kringle 5 and the latent protease domain (protein) VVAPPPVVLLPDVETPSEEDCMFGNGKGYRGKRATTVTGTPCQDWAAQEPHRHSIFTPETNPRAGLEKNYCRNPDGDVGGPWCYTTNPRKLYDYCDVPQCAAPSFDCGKPQVEPKKCPGRVVGGCVAHPHSWPWQVSLRTRFGMHFCGGTLISPEWVLTAAHCLEKSPRPSSYKVILGAHQEVNLEPHVQEIEVSRLFLEPTRKDIALLKLSSPAVITDKVIPACLPSPNYVVADRTECFITGWGETQGTFGAGLLKEAQLPVIENKVCNRYEFLNGRVQSTELCAGHLAGGTDSCQGDSGGPLVCFEKDKYILQGVTSWGLGCARPNKPGVYVRVSRFVTWIEGVMRN	Plg>K1-3>K5>K4	–	–
K1-3: plasminogen fragment Tyr79-Val337 or Tyr79-Val353, obtained by elastase digestion (protein) YLSECKTGNGKNYRGTMSKTKNGITCQKWSSTSPHRPRFSPATHPSEGLEENYCRNPDNDPQGPWCYTTDPEKRYDYCDILECEEECMHCSGENYDGKISKTMSGLECQAWDSQSPHAHGYIPSKFPNKNLKKNYCRNPDRELRPWCFTTDPNKRWELCDIPRCTTPPPSSGPTYQCLKGTGENYRGNVAVTVSGHTCQHWSAQTPHTHNRTPENFPCKNLDENYCRNPDGKRAPWCHTTNSQVRWEYCKIPSCDSSPV	Plg>K1-3>K5>K4	–	–
